≈ marks a conversion by molar mass, not a printed value. Read-outs that look alike come from different tables or passages of the source.
Tests used:
T. foetus [1] = test: Trichomonal activity in vitro; format: cell-based; conditions: Tritrichomonas foetus, Table I, read-out: ED50 (T. foetus) in vitro
T. foetus [2] = test: Trichomonal activity in vivo: survival of mice infected i.p. with T. foetus; conditions: Tritrichomonas foetus, po, 336 h
Experimental: Mice were infected through intraperitoneal (I.P.) injection of 1.4×10^7 T. foetus. Each compound disclosed in Table I below was dissolved in an aqueous vehicle, dosed to groups of mice (consisting of five) by gavage. The mice were dosed once per day for four consecutive days with doses ranging from 1-50 mg/kg. The effective dose of the compound, ED50, was calculated from the number of animals surviving a two week period.

Rat hepatocytes = test: Single strand DNA breaks in rat hepatocytes (elution); format: cell-based; conditions: for Relative Elution Slope: relative to control 1.00, ≥3.0 significant
Text: *Measure of the extent of DNA strand cleavage. Only relative elution
slopes ≥3.0 are considered significant. Therefore, […]

[3] = Cytotoxicity in rat hepatocytes; format: cell-based; conditions: relative to control cells
Text: **Relative viability is the number of hepatocytes surviving exposure to
the nitroimidazoles relative to the control cells.

Ames Salmonella TA100 = conditions: for In vivo Safety Index (rel to flagyl): relative increase in safety (1/mutagenicity) at the ED50 dose, relative to flagyl
Text: This test involves the addition to a fermentation medium in which is growing a particular organism identified as Ames Salmonella TA100, and measuring the number of mutant organisms formed.

[4] = Table I, gavage once per day for four consecutive days, survival over two weeks, read-out: ED50 (T. foetus) in vivo
[5] = Table II, read-out: T. foetus In Vivo (ED50)
[6] = Table III, read-out: T. foetus (ED50) In vivo
[7] = Table II, relative to ronidazole

| Structure (SMILES) | IC50 (T. foetus [1]) [µg/mL] | ED50 (T. foetus [2]; [4]) [mg/kg] | ED50 (T. foetus [2]; [6]) [mg/kg] | Mutagenicity (Ames Salmonella TA100; Table III, Ames TA100 strain) [percent ronidazole] | also measured |
| --- | --- | --- | --- | --- | --- |
| Cc1ncc([N+](=O)[O-])n1CCO [Flagyl, 1-(2-hydroxyethyl)-2-methyl-5-nitro-imidazole, reference compound] | 0.4 (≈ 2.34 µM) | 25 to 50 | 25 to 50 | – | ED50 (T. foetus [2]; [5]): 50 mg/kg; DNA strand breaks (in words) (Rat hepatocytes; at both 3.0 and 10.0 mM): caused breaks; viability at 3000 µM ([3]; 3.0 mM): 107%; viability at 10000 µM ([3]; 10.0 mM): 101% |
| Cn1cc([N+](=O)[O-])nc1S(=O)(=O)c1ccccc1 [Compound 5, 1-methyl-2-phenylsulfonyl-4-nitroimidazole] | 17 (≈ 63.6 µM) | 10 to 25 | 10 to 25 | 0.1 | – |
| CC(C)S(=O)(=O)c1nc([N+](=O)[O-])cn1C [Compound 4, 1-methyl-2-isopropylsulfonyl-4-nitroimidazole] | 21 (≈ 90 µM) | 5 to 10 | 5 to 10 | 0.1 | – |
| CCCSc1nc([N+](=O)[O-])cn1C [Compound 9, 1-methyl-2-propylthio-4-nitroimidazole] | 4 (≈ 19.9 µM) | 5 | – | – | – |
| CCSc1nc([N+](=O)[O-])cn1C [Compound 8, 1-methyl-2-ethylthio-4-nitroimidazole] | 2.3 (≈ 12.3 µM) | 2 | – | – | ED50 (T. foetus [2]; [5]): 2 mg/kg; mutants per plate (Ames Salmonella TA100; 3 μg per plate): indistinguishable from background; mutants per plate (Ames Salmonella TA100; 30 μg per plate): indistinguishable from background; mutants per plate (Ames Salmonella TA100; 100 μg per plate): 30 mutants per plate; mutants per plate (Ames Salmonella TA100; 300 μg per plate): 65 mutants per plate; mutagenicity (conclusion in words) (Ames Salmonella TA100; Ames test): non-mutagenic; In vivo Safety Index (rel to flagyl) (Ames Salmonella TA100; Table II): > 1750; Mutagenicity (Ames Salmonella TA100; [7]): < 0.1 percent Ronidazole; Relative Elution Slope (Rat hepatocytes; 0.5 mM): 1.33; Relative Elution Slope (Rat hepatocytes; 1.5 mM): 1.23; Relative Elution Slope (Rat hepatocytes; 5.0 mM): 1.60; significant DNA strand breakage (in words) (Rat hepatocytes; up to 5.0 mM): did not cause significant DNA strand; viability at 500 µM ([3]; 0.5 mM): 107%; viability at 1500 µM ([3]; 1.5 mM): 105%; viability at 5000 µM ([3]; 5.0 mM): 102% |
| Cn1cc([N+](=O)[O-])nc1[S+](C)[O-] (stereo not drawn) [Compound 6, 1-methyl-2-methylsulfinyl-4-nitroimidazole] | 14 (≈ 74 µM) | 2 to 5 | – | – | – |
| CCS(=O)(=O)c1nc([N+](=O)[O-])cn1C [Compound 2, 1-methyl-2-ethylsulfonyl-4-nitroimidazole] | 18.5 (≈ 84.4 µM) | 2 to 5 | 2 to 5 | 0.1 | – |
| CC(C)Sc1nc([N+](=O)[O-])cn1C [Compound 10, 1-methyl-2-isopropylthio-4-nitroimidazole] | 4 (≈ 19.9 µM) | 10 to 50 | – | – | – |
| CCn1cc([N+](=O)[O-])nc1S(C)(=O)=O [Compound 1] | 25 (≈ 114 µM) | 10 to 50 | – | – | – |
| CCCS(=O)(=O)c1nc([N+](=O)[O-])cn1C [Compound 3, 1-methyl-2-propylsulfonyl-4-nitroimidazole] | 27 (≈ 116 µM) | 5 to 10 | 5 to 10 | 0.1 | – |
| CSc1nc([N+](=O)[O-])cn1C [Compound 7, 1-methyl-2-methylthio-4-nitroimidazole] | 2.1 (≈ 12.1 µM) | 5 to 10 | – | – | – |
| Cn1c([N+](=O)[O-])cnc1COC(N)=O [Ronidazole, 1-methyl-2-[(carbamoyloxy)methyl]-5-nitroimidazole, reference compound] | – | – | 5 to 10 | 100.0 | ED50 (T. foetus [2]; [5]): 2 to 5 mg/kg; mutants per plate (Ames Salmonella TA100; 3 μg per plate): 358 mutants per plate; mutants per plate (Ames Salmonella TA100; 30 μg per plate): 2682 mutants per plate; In vivo Safety Index (rel to flagyl) (Ames Salmonella TA100; Table II): 0.7; Mutagenicity (Ames Salmonella TA100; [7]): 100 percent Ronidazole |

Source: patent US4675337A, “Non-mutagenic 1,2-disubstituted 4-nitro-imidazoles useful as antiprotozoal agents” (priority 1986, dated 1987)
